Test system: CRBPII
Assay: RAW 264.7 Q-PCR: CRBPII
Assay type: cell-based, murine
Details: RXRα overexpressing RAW 264.7 cells; FIG. 10d

polyinosinic:polycytidylic acid [polyI:C]
LG268 induced CRBPII: unable to repress LG268 induced CRBPII

Source: patent US20090181910A1, “METHOD OF PREVENTION AND ALLEVIATION OF TOXICITY BY MODULATION OF IRF3” (priority 2006, published 2009)
